The source of these data is PubChem BioAssay AID256 (DTP/NCI, 2004).

Values joined by “and” are separate entries in the source; they are usually repeats but may differ in a detail not shown here. Equal values may be shown once. Toxic doses and inconclusive results are not listed.

This experiment deals with CD2F1 mice, L1210 leukemia ip, survival T/C. Put plainly: NCI In Vivo Anticancer Drug Screen. Data for tumor model L1210 Leukemia (intraperitoneal) in CD2F1 (CDF1) mice. To be noted: higher = longer survival. The method, boiled down: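 Tumor-bearing mice (transplanted tumor) were split into treated and vehicle control groups, and the measured endpoint of each treated group was divided by that of its vehicle controls.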

Where [1] appears, read: endpoint: mean survival time, dose: 25.0 mg/kg/injection, schedule: Q01DX009 (ip), vehicle: saline.
[2] abbreviates: endpoint: mean survival time, dose: 50.0 mg/kg/injection, schedule: Q01DX009 (ip), vehicle: saline.
[3] abbreviates: endpoint: mean survival time, dose: 100.0 mg/kg/injection, schedule: Q01DX009 (ip), vehicle: saline with Tween-80.
Where [4] appears, read: endpoint: mean survival time, dose: 100.0 mg/kg/injection, schedule: Q04DX003 (ip), vehicle: saline with Tween-80.
[5] abbreviates: endpoint: mean survival time, dose: 200.0 mg/kg/injection, schedule: Q01DX009 (ip), vehicle: saline with Tween-80.
[6] abbreviates: endpoint: mean survival time, dose: 200.0 mg/kg/injection, schedule: Q04DX003 (ip), vehicle: saline with Tween-80.
Where [7] appears, read: endpoint: mean survival time, dose: 400.0 mg/kg/injection, schedule: Q01DX009 (ip), vehicle: saline with Tween-80.
Setting [8] is: endpoint: mean survival time, dose: 400.0 mg/kg/injection, schedule: Q04DX003 (ip), vehicle: saline with Tween-80.
Setting [9] is: endpoint: mean survival time, dose: 12.5 mg/kg/injection, schedule: Q01DX009 (ip), vehicle: saline with Tween-80.
The mark [10] stands for this setting: endpoint: mean survival time, dose: 25.0 mg/kg/injection, schedule: Q01DX009 (ip), vehicle: saline with Tween-80.
[11] abbreviates: endpoint: mean survival time, dose: 50.0 mg/kg/injection, schedule: Q01DX009 (ip), vehicle: saline with Tween-80.

With `CCOC(=O)C1=C(C)NC(=O)NN1C(=O)OCC`, the T/C is 94 % of control (endpoint: mean survival time, dose: 12.5 mg/kg/injection, schedule: Q01DX009 (ip), vehicle: saline); 87 % of control under setting [1]; 94 % of control under setting [2].
As to `O=C1c2ccccc2C(=O)c2c1ccc(O)c2O`, the T/C reads like this: under setting [3], 97 % of control; under setting [4], 102 % of control; under setting [5], 97 % of control; under setting [6], 100 % of control; under setting [7], 90 % of control; under setting [8], 100 % of control.
`C=C(Br)CNS(=O)(=O)c1ccc(OC)cc1`: the T/C under setting [3] is 93 % of control, the T/C under setting [5] is 97 % of control and the T/C under setting [7] was 96 % of control.
Consider `O=[N+]([O-])c1ccc2nc(CC(O)(C(F)(F)F)C(F)(F)F)ccc2c1`, for which the T/C by setting is: under setting [3], 112 % of control; under setting [4], 102 % of control; under setting [5], 110 % of control; under setting [6], 97 % of control; under setting [7], 101 % of control; under setting [8], 113 % of control.
With `CC(=O)C1CCC2(C)C(CCC3C4CCC(C(C)=O)C4(C)CC(=O)C32)C1` (stereo unspecified), the T/C is 96 % of control (endpoint: mean survival time, dose: 50.0 mg/kg/injection, schedule: Q01DX009 (ip), vehicle: Klucel (hydroxypropylcellulose) (HPC)); 100 % of control (endpoint: mean survival time, dose: 100.0 mg/kg/injection, schedule: Q01DX009 (ip), vehicle: Klucel (hydroxypropylcellulose) (HPC)); 93 % of control (endpoint: mean survival time, dose: 200.0 mg/kg/injection, schedule: Q01DX009 (ip), vehicle: Klucel (hydroxypropylcellulose) (HPC)).
Consider `C=CCC#N`, for which the T/C (endpoint: mean survival time, dose: 100.0 mg/kg/injection, schedule: Q04DX003 (ip), vehicle: saline sonified) was 90 % of control.
Consider `CCN(Cc1cnc2nc(N)nc(N)c2n1)c1c(Cl)cc(C(=O)NC(CCC(=O)O)C(=O)O)cc1Cl` (stereo unspecified), for which the T/C was 117 % of control (endpoint: mean survival time, dose: 3.12 mg/kg/injection, schedule: Q01DX009 (ip), vehicle: sodium bicarbonate); 117 % of control (endpoint: mean survival time, dose: 6.25 mg/kg/injection, schedule: Q01DX009 (ip), vehicle: sodium bicarbonate); 170 % of control (endpoint: mean survival time, dose: 100.0 mg/kg/injection, schedule: Q01DX009 (ip), vehicle: sodium bicarbonate).
For the compound `ONc1ccccn1`, the T/C under setting [1] is 101 % of control; the T/C under setting [2] was 96 % of control; the T/C (endpoint: mean survival time, dose: 50.0 mg/kg/injection, schedule: Q04DX003 (ip), vehicle: saline) was 98 % of control; the T/C (endpoint: mean survival time, dose: 100.0 mg/kg/injection, schedule: Q01DX009 (ip), vehicle: saline) is 95 % of control; the T/C (endpoint: mean survival time, dose: 100.0 mg/kg/injection, schedule: Q04DX003 (ip), vehicle: saline) is 98 % of control.
In the case of `NC(=O)C(Cl)(Cl)C(Cl)(Cl)C(Cl)(Cl)Cl`, the T/C is 100 % of control under setting [3]; 100 % of control under setting [4]; 93 % of control under setting [5]; 95 % of control under setting [6]; 90 % of control under setting [7]; 94 % of control under setting [8].
As for `CCOC(=S)SCCCC(C)CC` (stereo unspecified), the T/C is, setting by setting: (endpoint: mean survival time, dose: 100.0 mg/kg/injection, schedule: Q01DX001 (ip), vehicle: saline) 100 % of control; (endpoint: mean survival time, dose: 200.0 mg/kg/injection, schedule: Q01DX001 (ip), vehicle: saline) 102 % of control; (endpoint: mean survival time, dose: 400.0 mg/kg/injection, schedule: Q01DX001 (ip), vehicle: saline) 102 % of control.
Take `Cc1cc(=O)cc(C)n1C`: the T/C under setting [4] was 98 % of control, the T/C under setting [6] is 97 % of control and the T/C under setting [8] was 94 % of control.
Regarding `Oc1cc2ccccc2c(-c2c(O)c(O)cc3ccccc23)c1O`, the T/C is 103 % of control under setting [9]; 100 % of control and 103 % of control under setting [10]; 103 % of control and 105 % of control under setting [11]; 100 % of control and 109 % of control under setting [3]; 96 % of control under setting [5].
Turning to `O=C1c2cscc2C(=O)c2c(Cl)sc(Cl)c21`, the T/C is 96 % of control (endpoint: mean survival time, dose: 12.5 mg/kg/injection, schedule: Q04DX003 (ip), vehicle: saline with Tween-80); 103 % of control under setting [10]; 98 % of control (endpoint: mean survival time, dose: 25.0 mg/kg/injection, schedule: Q04DX003 (ip), vehicle: saline with Tween-80); 97 % of control under setting [11]; 90 % of control (endpoint: mean survival time, dose: 50.0 mg/kg/injection, schedule: Q04DX003 (ip), vehicle: saline with Tween-80); 91 % of control under setting [3]. Further, under setting [4], the T/C is 100 % of control.
As for `Cc1cc(NCCCCCCCNc2cc(C)nc3cc(N)ccc23)c2ccc(N)cc2n1`, the T/C (endpoint: mean survival time, dose: 0.78 mg/kg/injection, schedule: Q01DX009 (ip), vehicle: saline with Tween-80) is 123 % of control and 110 % of control; the T/C (endpoint: mean survival time, dose: 1.56 mg/kg/injection, schedule: Q01DX009 (ip), vehicle: saline with Tween-80) is 121 % of control and 123 % of control; the T/C (endpoint: mean survival time, dose: 6.25 mg/kg/injection, schedule: Q01DX009 (ip), vehicle: saline with Tween-80) was 153 % of control; the T/C under setting [9] is 157 % of control and 183 % of control; the T/C under setting [10] is 104 % of control; the T/C (endpoint: median survival time, dose: 0.78 mg/kg/injection, schedule: Q01DX009 (ip), vehicle: distilled water + Tween-80) is 119 % of control. Also, the T/C reads like this: (endpoint: median survival time, dose: 0.78 mg/kg/injection, schedule: Q01DX009 (ip), vehicle: other) 113 % of control; (endpoint: median survival time, dose: 1.56 mg/kg/injection, schedule: Q01DX009 (ip), vehicle: distilled water + Tween-80) 121 % of control; (endpoint: median survival time, dose: 1.56 mg/kg/injection, schedule: Q01DX009 (ip), vehicle: other) 120 % of control; (endpoint: median survival time, dose: 6.25 mg/kg/injection, schedule: Q01DX009 (ip), vehicle: other) 150 % of control; (endpoint: median survival time, dose: 6.25 mg/kg/injection, schedule: Q01DX009 (ip), vehicle: water) 157 % of control; (endpoint: median survival time, dose: 12.5 mg/kg/injection, schedule: Q01DX009 (ip), vehicle: distilled water + Tween-80) 167 % of control. Also, the T/C is 170 % of control (endpoint: median survival time, dose: 12.5 mg/kg/injection, schedule: Q01DX009 (ip), vehicle: other) and 180 % of control (endpoint: median survival time, dose: 12.5 mg/kg/injection, schedule: Q01DX009 (ip), vehicle: water).
For the compound `O=C(O)CC(C(=O)O)c1ccc([N+](=O)[O-])cc1` (stereo unspecified), the T/C under setting [3] was 93 % of control, the T/C under setting [5] is 93 % of control and the T/C under setting [7] is 97 % of control.
